Key:
[1] = target: T1, ATP-sensitive potassium channels in vascular smooth muscles (Rattus norvegicus, UniProt Q63563); experiment: Association and dissociation kinetics of [^3H]glibenclamide binding in aortic rings; design: species or system Wistar rat; conditions: drug M: compound 1 10^−4, pinacidil 10^−4, ATP 10^−2, ADP 10^−3, UDP 5 × 10^−3, Ade 10^−3; for Dissociation kinetics k2 of [^3H]glibenclamide binding / Association kinetics k1 of [^3H]glibenclamide binding / Association kinetics kobs of [^3H]glibenclamide binding / Association kinetics kA of [^3H]glibenclamide binding: 25° C.; for Dissociation kinetics k2 of [^3H]glibenclamide binding: control 0.72 ± 0.11; for Dissociation kinetics Kd of [^3H]glibenclamide binding in presence of the drug: Kd of the radioligand, not of the drug, control 0.55 ± 0.14; for Association kinetics k1 of [^3H]glibenclamide binding / Association kinetics kobs of [^3H]glibenclamide binding / Association kinetics kA of [^3H]glibenclamide binding: [^3H]-glibenclamide 3 nM; for Association kinetics k1 of [^3H]glibenclamide binding: control 1.31 ± 0.14; for Association kinetics kobs of [^3H]glibenclamide binding: control 4.65 ± 0.37, means ± SD, n = 4~10; for Association kinetics kA of [^3H]glibenclamide binding: control 181.90 ± 46.90
T1 construct: The aorta was cut into about 3-5 mm arterial rings and the vascular endothelium was scraped off; from tissue; host or cells: endothelium-removed aortic rings of male Wistar rats
T1 sequence (Q63563 1-1545 isoform Q63563-2): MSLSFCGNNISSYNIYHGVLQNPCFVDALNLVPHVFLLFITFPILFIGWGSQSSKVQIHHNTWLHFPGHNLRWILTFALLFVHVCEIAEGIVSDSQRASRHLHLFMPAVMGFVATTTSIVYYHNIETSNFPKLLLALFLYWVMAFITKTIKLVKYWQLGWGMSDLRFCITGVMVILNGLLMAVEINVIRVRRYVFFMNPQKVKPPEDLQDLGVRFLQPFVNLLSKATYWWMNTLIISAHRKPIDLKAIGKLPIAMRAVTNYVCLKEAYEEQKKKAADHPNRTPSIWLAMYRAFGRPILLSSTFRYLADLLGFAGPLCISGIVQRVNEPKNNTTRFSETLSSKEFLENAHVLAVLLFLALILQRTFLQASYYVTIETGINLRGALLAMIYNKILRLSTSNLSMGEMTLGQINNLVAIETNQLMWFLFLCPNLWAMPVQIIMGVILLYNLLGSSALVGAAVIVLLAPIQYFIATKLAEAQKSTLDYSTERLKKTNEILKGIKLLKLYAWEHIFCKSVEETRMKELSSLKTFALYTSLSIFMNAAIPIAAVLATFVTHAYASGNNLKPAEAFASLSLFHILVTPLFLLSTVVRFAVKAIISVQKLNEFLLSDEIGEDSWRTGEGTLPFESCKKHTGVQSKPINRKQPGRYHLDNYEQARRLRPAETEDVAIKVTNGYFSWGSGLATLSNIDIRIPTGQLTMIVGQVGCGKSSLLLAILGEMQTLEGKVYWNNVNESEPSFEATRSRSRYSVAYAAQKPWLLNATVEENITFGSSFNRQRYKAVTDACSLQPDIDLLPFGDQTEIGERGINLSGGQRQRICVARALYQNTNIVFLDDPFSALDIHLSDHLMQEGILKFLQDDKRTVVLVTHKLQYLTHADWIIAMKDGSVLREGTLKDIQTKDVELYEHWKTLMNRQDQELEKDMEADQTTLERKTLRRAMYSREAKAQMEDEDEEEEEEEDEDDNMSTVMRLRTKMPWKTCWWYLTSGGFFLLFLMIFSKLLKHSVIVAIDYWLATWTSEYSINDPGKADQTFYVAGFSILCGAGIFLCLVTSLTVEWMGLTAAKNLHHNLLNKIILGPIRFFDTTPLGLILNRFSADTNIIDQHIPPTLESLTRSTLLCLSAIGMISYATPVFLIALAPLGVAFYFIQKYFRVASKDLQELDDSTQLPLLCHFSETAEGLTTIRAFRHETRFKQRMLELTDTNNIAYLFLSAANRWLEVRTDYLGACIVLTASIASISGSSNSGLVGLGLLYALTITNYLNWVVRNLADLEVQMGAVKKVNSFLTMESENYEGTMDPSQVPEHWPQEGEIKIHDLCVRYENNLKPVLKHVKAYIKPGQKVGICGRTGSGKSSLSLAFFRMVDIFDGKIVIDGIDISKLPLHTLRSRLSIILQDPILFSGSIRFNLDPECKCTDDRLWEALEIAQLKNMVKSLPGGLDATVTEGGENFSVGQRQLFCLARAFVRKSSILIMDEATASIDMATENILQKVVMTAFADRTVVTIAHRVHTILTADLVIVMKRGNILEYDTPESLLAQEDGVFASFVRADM
T1 sequence (Q63664 whole entry partner): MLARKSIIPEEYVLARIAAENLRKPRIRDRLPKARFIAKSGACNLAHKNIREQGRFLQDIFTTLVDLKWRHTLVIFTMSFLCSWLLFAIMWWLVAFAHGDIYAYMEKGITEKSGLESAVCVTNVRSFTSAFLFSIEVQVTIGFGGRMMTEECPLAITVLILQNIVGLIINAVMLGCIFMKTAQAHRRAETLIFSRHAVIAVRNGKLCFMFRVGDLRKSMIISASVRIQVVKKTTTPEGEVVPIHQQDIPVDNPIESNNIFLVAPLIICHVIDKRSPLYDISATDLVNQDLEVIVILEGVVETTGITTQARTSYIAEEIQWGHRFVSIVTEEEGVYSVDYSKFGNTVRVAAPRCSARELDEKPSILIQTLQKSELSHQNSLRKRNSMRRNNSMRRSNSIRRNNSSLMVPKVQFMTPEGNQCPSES
From the text: (§1) Biological activity experiment 4. Allosteric regulation of novel compounds on ATP-sensitive potassium channels in vascular smooth muscles.
(§2) To study the allosteric regulation of compound 1 on ATP-sensitive potassium channels in vascular smooth muscles, the radio-labled-ligand was used in the biological activity experiment 4.
1. The allosteric regulation of compound 1 on the binding sites for the selective KATP blocker glibenclamide in vascular smooth muscles was studied as follows: After decapitated, the male Wistar rat (340±20 g) was immediately incised open the thoracic cavity. The aorta was dissected and immersed in the 4° C. buffer containing 10 mM HEPES to wash off the blood, then carefully extirpated the fat, peripheral connective tissues and thrombus. The aorta was cut into about 3-5 mm arterial rings and the vascular endothelium was scraped off with wet tampon. The arterial rings were blotted, weighted and transferred into the tubes containing proper amount of ice colded physiological saline buffer. […] At 5,10,15,20,30,60,90 and 120 min after incubation, 9 mL ice colded Tris buffer (50 mM) was added to terminate the reaction. After washing off the free and bound [^3H]-glibenclamide, the aorta was blotted, transferred to a scintillator, added 50 uL 30% H2O2 and reacted for 2 h at 80° C. After cooling, 2.5 mL ethyl glycol and 5 mL 1% B-BPD xylene were added in sequence, kept stationary for 8 h and measured under a scintillometer for cpm value. The resulting data were fit into a regression line with In[BEQ/(BEQ-Bt)]vs.t and the parameters for association kinetics were obtained. In the disassociation kinetics experiments, the aorta treated as described above and [^3H]-glibenclamide were incubated for 60 min at 25° C., and then 30 uM glibenclamide was added. 0,5,15,30,60,90 and 120 min later, the cpm values for the complex of [^3H]-glibenclamide and KATP were measured. The resulting data were fit into a regression line with In(B/BEQ)]vs.t and the parameters for disassociation kinetics were obtained. 2. The allosteric regulation of compound 1 on the binding sites for the selective KATP activator P1075 in vascular smooth muscles was studied with the method as described above, but some conditions should be changed as follows: the incubation temperature was 37° C. instead of 25° C.;P1075 was used instead of glibenclamide; In the association kinetics experiments, the time points for sampling were 5,10,15,20,30,45,60 and 90 min, while in the disassociation kinetics experiments, that were 1,3,5,10,20,30,45 and 60 min. Biological activity experiment 5. The effects of compound 1 on the specific binding of high selective activator [^3H]P1075 with ATP-sensitive potassium channels in vascular smooth muscles.

[2] = target: T1, ATP-sensitive potassium channels in vascular smooth muscles; experiment: Association kinetics of [^3H]P1075 binding in aortic rings; design: species or system Wistar rat; conditions: 37° C.; drug M: Compound 1 10^−4, Glibencamide 10^−5, ATP 10^−2, ADP 10^−3, UDP 5 × 10^−5, GTP 10^−3, Ade 10^−3; control 4.36 ± 0.45; means ± SD, n = 4~10
From the text: as §1, §2
1. The allosteric regulation of compound 1 on the binding sites for the selective KATP blocker glibenclamide in vascular smooth muscles was studied as follows: After decapitated, the male Wistar rat (340±20 g) was immediately incised open the thoracic cavity. The aorta was dissected and immersed in the 4° C. buffer containing 10 mM HEPES to wash off the blood, then carefully extirpated the fat, peripheral connective tissues and thrombus. The aorta was cut into about 3-5 mm arterial rings and the vascular endothelium was scraped off with wet tampon. The arterial rings were blotted, weighted and transferred into the tubes containing proper amount of ice colded physiological saline buffer. In the association kinetics experiment, the arterial circles in the tubes were incubated with, compound 1(10^−4M), pinacidil(10^−4M), ATP(10^−2M), ADP(10^−3M), Ade(10^−3M), […] and equal volume of buffer respectively for 10 min in 25° C. water bath, and then added [^3H]-glibenclamide(3 nM). At 5,10,15,20,30,60,90 and 120 min after incubation, 9 mL ice colded Tris buffer (50 mM) was added to terminate the reaction. After washing off the free and bound [^3H]-glibenclamide, the aorta was blotted, transferred to a scintillator, added 50 uL 30% H2O2 and reacted for 2 h at 80° C. After cooling, 2.5 mL ethyl glycol and 5 mL 1% B-BPD xylene were added in sequence, kept stationary for 8 h and measured under a scintillometer for cpm value. The resulting data were fit into a regression line with In[BEQ/(BEQ-Bt)]vs.t and the parameters for association kinetics were obtained. In the disassociation kinetics experiments, the aorta treated as described above and [^3H]-glibenclamide were incubated for 60 min at 25° C., and then 30 uM glibenclamide was added. 0,5,15,30,60,90 and 120 min later, the cpm values for the complex of [^3H]-glibenclamide and KATP were measured. The resulting data were fit into a regression line with In(B/BEQ)]vs.t and the parameters for disassociation kinetics were obtained. 2. The allosteric regulation of compound 1 on the binding sites for the selective KATP activator P1075 in vascular smooth muscles was studied with the method as described above, but some conditions should be changed as follows: the incubation temperature was 37° C. instead of 25° C.;P1075 was used instead of glibenclamide; In the association kinetics experiments, the time points for sampling were 5,10,15,20,30,45,60 and 90 min, while in the disassociation kinetics experiments, that were 1,3,5,10,20,30,45 and 60 min. Biological activity experiment 5. The effects of compound 1 on the specific binding of high selective activator [^3H]P1075 with ATP-sensitive potassium channels in vascular smooth muscles.

[3] = tested on: rats anesthetized with pentobarbital sodium; experiment: Effects on blood pressure, heart rate, cardiac contraction and dilation in rats anesthetized with pentobarbital sodium; type: in vivo, Wistar rats; design: unit not given here; conditions: change after injection through femoral vein, '+' = increase, all others = decrease
Procedure: Biological activity experiment 1. The effects of 16 compounds represented by formula I on blood pressure, heart rate, cardiac contraction and dilation in rats anesthetized with pentobarbital sodium.
The methods of biological activity experiment 1 were as follows: Male Wistar rats, weighing 280±30 g were purchased from the experimental animal center of Academy of Military Medical Sciences. Rats were anesthetized with pentobarbital sodium (45 mg/kg) by peritoneal injection. A PE50 polyethylene catheter was inserted into the left ventricle through right carotid artery for cardiac function measurement with a pressure energe exchanger, wherein the signal is put into a SMUP-PC biosignal processing system. Cardiac functional parameters such as HR, LVSP, +dp/dtmax, −dp/dtmax and Vpm were recorded. Another two PE50 polyethylene catheters were inserted into the right femoral artery and vein respectively for blood pressure measurement wherein the artery cathether was linked to a four-channel physiology recorder (RM-6000) through a MPU-0.5A Type pressure energe exchanger, which recorded SBP, DBP and MBP, while the vein catheter was used for compound administration. The methods were described by Liu Wei et al: Liu Wei, Wang Hai, Xiao Wen-Bin. […] Bull Acad Mil Med Sci 1996;20(4):245˜248.

[4] = tested on: outward potassium currents of rat tail arterial SMCs; experiment: Whole cell recording of outward potassium currents in rat tail arterial SMCs; type: cell-based, Wistar rats; conditions: X ± SD n = 5
From the text: Biological activity experiments 6. The effects of novel compounds on potassium currents in isolated arterial vascular smooth muscle cells (SMCs).
The outward currents were, elicited in rat tail arterial SMCs by superfusing extracellular solution under whole cell recording configuration that the depolarizing pulse were applied from −30 mV to +100 mV with the holding potential of −40 mV in 100 ms, 10 mV clamp steps, a frequency of 5 KHz. The compounds were applied in the bath at the concentrations of 100 μmol L^−1. The amplitude of the outward potassium currents was recorded before and after compound application Values were expressed as means±SD. Statistical significance between two groups was evaluated by student's t-test for paired data * P<0.05 **P<0.01 vs control.
1. Preparation of single smooth muscle cells from rat tail arteries: Male Wistar rats (200-250 g) were killed by exsanguination. The tail artery was dissected out and transferred into cold physiological salt solution (PSS) of the following composition (in mM): NaCl 118.3, KCl 4.7, KH2PO4 1.2, MgSO4 1.2, NaHCO3 25.0, CaCl2 2.5, EDTA 0.026 and Glucose 5.0 pH7.4. With the use of a dissecting microscope, the connective tissues were removed and the artery was cut open longitudinally. Endothelium was removed carefully with a cotton swab then the artery was cut into segments with 1 mm long and placed in 4° C. the extracellular solution containing (in mM) NaCl 130, KCl 5, MgCl2 1.2, HEPES 10, Glucose 10, pH7.2 for 20 min. After this incubation, the medium was changed to enzyme solution which was composed of collagenase I (1 mg ml^−1), papain (5 mg ml^−) and bovine serum albumin (2 mg ml^−1). The tissues, were incubated in this solution for 40 min, and then rinsed three times triturated using a fire-polished Pasteur pipette until the medium turned cloudily. The cell suspension was stored in the refrigerator at 4° C.
3. Whole cell recordings: A bath dish with the smooth muscle cells (SMCs) attached and superfused with the extracellular solution at a flow rate of 2 ml min^−1 was mounted onto the stage of an inverted-phase contrast microscope. The microelectrodes having a resistance of (5-8 MΩ) were made from boroscilicate thin-wall glass capillaries, using an automatic multiple-stage, electronic puller (PP830 Japan) and then heat-polished. After establishing a high resistance seal, the patch membrane was disrupted by negative pressure. A commercial patch clamp amplifier (Axon 200B) was used to generate and apply voltages and sample current signals from the cell.

[5] = target: T1, ATP-sensitive potassium channels in vascular smooth muscles; experiment: Inhibition of specific binding of [^3H]P1075 in endothelium-removed rat aorta; design: species or system Wistar rat; conditions: [^3H] P1075 5 nmol L^−1, 90 minutes at 37° C., endothelium-removed rat aorta
[6] = mean, n = 3~5, doses mg/kg: 2, 8, 12: 10, 3-7, 9-11, 40-44: 5

Row | Dissociation kinetics k2 of [^3H]glibenclamide binding [1] | Dissociation kinetics Kd of [^3H]glibenclamide binding in presence of the drug [1] [µM] | Association kinetics k1 of [^3H]glibenclamide binding [1] | Association kinetics kobs of [^3H]glibenclamide binding [1] | Association kinetics kA of [^3H]glibenclamide binding [1] | Association kinetics kobs of [^3H]P1075 binding [2] | Structure (SMILES) | other results
1 | 0.80 ± 0.22 ×10^2 nM^−1 · min^−1 | 0.0007 ± 0.00024 | 1.15 ± 0.23 ×10^−2nM^−1 · min^−1 | 4.26 ± 0.65 ×10^−2nM^−1 · min^−1 | 143.50 ± 49.00 ×10^−2nM^−1 · min^−1 | 5.53 ± 0.51 ×10^−2 nM^−1 · min^−1 | O=c1ccn([C@@H]2O[C@H](COP(=O)(O)OP(=O)(O)O)[C@@H](O)[C@H]2O)c(=O)[nH]1 [UDP] | 
2 |  |  |  |  |  |  | CCCNC(C)(C)C(C)C [compound 5, N-propyl-2,3-dimethyl-2-butylamine] | melting point: 183 to 185 °C; MBP: mean blood pressure ([3]; n = 3~5, doses mg/kg: 2, 8, 12: 10, 3-7, 9-11, 40-44: 5): 28; DBP: diastolic blood pressure [3, 6]: 25; HR: heart rate [3, 6]: 78; LVSP: left ventricular systolic pressure [3, 6]: 162; SBP: systolic blood pressure [3, 6]: 34; Vpm: the physiological velocity of contractile element shorting [3, 6]: 0.58; −dp/dtmax: the maximal rate of the decrease of left ventricular pressure [3, 6]: 187; Currents, + Compound ([4]; outward potassium current amplitude after compound 100 μmol L^−1 in the bath): 0.67 ± 0.30 nA; Currents, Control (before compound application) ([4]; outward potassium current amplitude before compound application, same cells): 0.65 ± 0.30 nA
3 |  |  |  |  |  | 3.12 ± 0.17 ×10^−2 nM^−1 · min^−1 | COc1ccc(Cl)cc1C(=O)NCCc1ccc(S(=O)(=O)NC(=O)NC2CCCCC2)cc1 [glibenclamide, reference compound] | IC50 [5]: 58.9 ± 4.6 µM; Ki ([5]; read-out: pKi for inhibition of specific binding of [^3H]P1075 (converted)): 58.9 µM
4 | 0.94 ± 0.10 ×10^2 nM^−1 · min^−1 | 0.00209 ± 0.00112 | 0.45 ± 0.24 ×10^−2nM^−1 · min^−1 | 2.28 ± 0.70 ×10^−2nM^−1 · min^−1 | 47.80 ± 25.70 ×10^−2nM^−1 · min^−1 | 2.63 ± 0.48 ×10^−2 nM^−1 · min^−1 | Nc1ncnc2c1ncn2[C@@H]1O[C@H](COP(=O)(O)OP(=O)(O)O)[C@@H](O)[C@H]1O [ADP] | 
5 | 0.42 ± 0.14 ×10^2 nM^−1 · min^−1 | 0.00017 ± 6e-05 | 2.42 ± 0.34 ×10^−2nM^−1 · min^−1 | 7.69 ± 1.01 ×10^−2nM^−1 · min^−1 | 590.2 ± 208.20 ×10^−2nM^−1 · min^−1 | 2.85 ± 0.08 ×10^−2 nM^−1 · min^−1 | Nc1ncnc2c1ncn2[C@@H]1O[C@H](COP(=O)(O)OP(=O)(O)OP(=O)(O)O)[C@@H](O)[C@H]1O [ATP, adenosine triphosphate] | 

Reference: patent US7560473B2 (Institute of Pharmacology and Toxicology Academy of …, priority 2001, dated 2009)
